# Laboratory results reported in patent US7138421B2, “Anti-androgenic pyrrolidines with tumor-inhibiting action” (Schring Aktiengesellschaft, priority 2003, dated 2006).
# Where two headings read alike, the source gives them in different places.
# What was measured:
# androgen receptor = molecular target: T1, androgen receptor (Homo sapiens, UniProt P10275, T878A); type: cell-based; settings: LNCaP cells, 48 h, 10 μM, % of DMSO control
# T1 construct: Destabilization of AR in LNCaP Cells by Test Substances; endogenous in cells; host or cells: LNCaP (human prostate cell line)
# T1 sequence (P10275 1-920 T878A): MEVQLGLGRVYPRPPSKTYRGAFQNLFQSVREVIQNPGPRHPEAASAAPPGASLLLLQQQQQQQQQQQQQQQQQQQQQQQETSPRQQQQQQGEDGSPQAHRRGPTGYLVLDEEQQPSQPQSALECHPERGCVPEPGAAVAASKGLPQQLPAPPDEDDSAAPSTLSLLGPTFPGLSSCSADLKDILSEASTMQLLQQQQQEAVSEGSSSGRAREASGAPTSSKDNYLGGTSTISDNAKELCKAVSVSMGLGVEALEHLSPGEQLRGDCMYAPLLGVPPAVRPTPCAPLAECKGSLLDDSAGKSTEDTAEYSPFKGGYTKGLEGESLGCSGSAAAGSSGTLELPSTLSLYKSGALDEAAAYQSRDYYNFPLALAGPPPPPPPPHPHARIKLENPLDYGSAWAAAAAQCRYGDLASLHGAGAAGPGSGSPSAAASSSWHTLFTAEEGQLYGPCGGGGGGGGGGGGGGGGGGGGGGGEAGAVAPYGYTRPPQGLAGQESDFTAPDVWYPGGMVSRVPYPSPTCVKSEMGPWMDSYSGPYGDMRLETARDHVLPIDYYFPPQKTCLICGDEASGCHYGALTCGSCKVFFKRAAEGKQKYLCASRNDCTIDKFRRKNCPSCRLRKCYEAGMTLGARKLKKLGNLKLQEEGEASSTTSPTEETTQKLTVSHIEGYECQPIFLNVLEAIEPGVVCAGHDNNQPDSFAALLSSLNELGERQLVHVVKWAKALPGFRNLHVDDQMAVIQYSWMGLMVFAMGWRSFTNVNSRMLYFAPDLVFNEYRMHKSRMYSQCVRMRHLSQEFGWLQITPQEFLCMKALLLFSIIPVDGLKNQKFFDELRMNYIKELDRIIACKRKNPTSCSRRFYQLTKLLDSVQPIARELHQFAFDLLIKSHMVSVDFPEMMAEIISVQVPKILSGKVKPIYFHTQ
# seminal vesicles = experiment: Anti-androgenic action on testosterone-stimulated growth of the seminal vesicles of castrated mice; type: in vivo, mouse; settings: 1× daily, 7 days, castrated mice with testosterone propionate
# Method: The function and the size of accessory reproductive glands (prostate and seminal vesicles) depend on androgens. In castrated animals, a growth of these organs is induced by the administration of androgen. Simultaneous treatment with anti-androgens inhibits this growth in a dose-dependent manner. For the examination of test substances, the mice were castrated. On the same day, treatment with testosterone propionate (0.03 mg/mouse) and the test substances (1× daily 10 or 30 mg/kg p.o. in benzyl benzoate-castor oil or ethanol/peanut oil (10:90)) was formulated. The treatment was carried out over 7 days and at the end of the test, the weights of the seminal vesicles and prostate were determined. The inhibition of the seminal vesicle growth, in percent, was calculated in reference to the control groups (with and without testosterone). As a reference substance, cyproterone acetate (30 mg/kg s.c. and p.o.) was used.
# LNCaP cells = experiment: Inhibition of the proliferation of LNCaP cells (crystal violet assay); type: cell-based, human; settings: for inhibition at 1 µM: read-out: % Inhibition at 1 μM, 1 μM test substance, compared to cell growth in the presence of 0.1 nmol of R1881; for IC50: 7 to 8 days
# Method: For the proliferation assay, 6000 LNCaP cells/well (Horoszewicz et al. Cancer Res. 1983, 43, 1809–1817) in a microtiter plate (96-well) in 50 μl of RPMI1640 medium are grown with 5% CCS and cultivated as in Model 1. After 24 hours, the cells receive 50 μl of 2×-concentrated test substance, diluted in culture medium. The solvent concentration is 0.5% DMSO. After 4 days, the cells receive another 100 μl of 1×-concentrated test substance, diluted in culture medium. After 7 to 8 days, the proliferation rate of the cells is determined by means of crystal violet assay (Gillies et al. Anal. Biochem. 1986, 159, 109–113). To determine the antagonism, the substance treatment is performed in the presence of […] of R1881 (1:1000 dilution of ethanolic solution). Control cells receive only 0.5% DMSO. For the agonism, the cells are treated only with test substance (without R1881).
# [1] = Pharmacokinetics in rats after intravenous and peroral administration; type: in vivo; settings: rat, serum; for Vd / clearance: intravenous; for Vd: read-out: Distribution Volume Vdss; for clearance: read-out: Systemic Serum Clearance CL; for Tmax: read-out: Absorption Tmax
# Text: Model 4: Pharmacokinetics in Rats After Intravenous and Peroral Administration
# The pharmacokinetic properties of the compounds according to the invention were studied in Examples 1: 4-[4,4-dimethyl-5-oxo-3-[8-(pyrrolidin-1-yl)octyl]-2-thioxoimidazolidin-1-yl]-2-(trifluoromethyl)benzonitrile and 11: 4-[3-[8-[(2S)-2-(hydroxymethyl)pyrrolidin-1-yl]octyl]-4,4-dimethyl-5-oxo-2-thioxoimidazolidin-1-yl]-2-(trifluoromethyl)benzonitrile.
# [2] = Homo sapiens, LNCaP, read-out: IC50 inhibition of the proliferation of LNCaP cells, in the presence of 0.1 nmol of R1881
# [3] = iv, read-out: Half-Life i.v. T1/2 (converted)
# [4] = po, read-out: Half-Life p.o. T1/2 (converted)
Compound,AR Content at 10 μM (androgen receptor) [%],% Inhibition of MSB Growth (seminal vesicles; 10 mg/kg p.o.) [%],% Inhibition of MSB Growth (seminal vesicles; 30 mg/kg p.o.) [%],"inhibition at 1 µM (LNCaP cells; Homo sapiens, LNCaP) [%]",IC50 (LNCaP cells; [2]) [nM],Vd [1] [L/kg],clearance [1] [mL/min/kg],"half-life [1, 3] [h]",bioavailability ([1]; po) [%],Tmax ([1]; po) [h],"half-life [1, 4] [h]","% Inhibition at 1 μM (LNCaP cells; 1 μM test substance, compared to cell growth in the presence of 0.1 nmol of R1881) [%]","IC50 (LNCaP cells; read-out: IC50 inhibition of the proliferation of LNCaP cells, in the presence of 0.1 nmol of R1881, hydrochloride) [nM]"
"CC1(C)C(=O)N(c2ccc(C#N)c(C(F)(F)F)c2)C(=S)N1CCCCCCCCN1CCCC1 [Example 1, 4-[4,4-Dimethyl-5-oxo-3-[8-(pyrrolidin-1-yl)octyl]-2-thioxoimidazolidin-1-yl]-2-(trifluoromethyl)benzonitrile]",63,82,99,98,45,37,76,5.6,72,5,6.1,–,–
"CC1(C)C(=O)N(c2ccc(C#N)c(C(F)(F)F)c2)C(=S)N1CCCCCCCCN1CCCC1.Cl [Example 2, 4-[4,4-Dimethyl-5-oxo-3-[8-(pyrrolidin-1-yl)octyl]-2-thioxoimidazolidin-1-yl]-2-(trifluoromethyl)benzonitrile hydrochloride]",50,–,95,–,–,–,–,–,–,–,–,100,41
"CC1(C)C(=O)N(c2ccc(C#N)c(C(F)(F)F)c2)C(=S)N1CCCCCCCCN1CCC[C@@H]1CO [Example 10, 4-[3-[8-[(2R)-2-(Hydroxymethyl)pyrrolidin-1-yl]octyl]-4,4-dimethyl-5-oxo-2-thioxoimidazolidin-1-yl]-2-(trifluoromethyl)benzonitrile]",–,87,–,101,< 10,–,–,–,–,–,–,–,–
"CC1(C)C(=O)N(c2ccc(C#N)c(C(F)(F)F)c2)C(=S)N1CCCCCCCCN1CCC[C@H]1CO [Example 11, 4-[3-[8-[(2S)-2-(Hydroxymethyl)pyrrolidin-1-yl]octyl]-4,4-dimethyl-5-oxo-2-thioxoimidazolidin-1-yl]-2-(trifluoromethyl)benzonitrile]",50,–,95,102,13,11,20,5.7,65,7,8,–,–
